The source of these data is patent publication US20050009894A1 (Aventis Pharma S.A., priority 2001, published 2005).

The target in one assay is T1, human KDR enzyme (Homo sapiens, UniProt P35968).
T1 construct: The cytoplasmic domain of human KDR enzyme is cloned in the form of a GST fusion; GST; made in house; host or cells: SF21 insect cells (baculovirus, pFastBac)
T1 sequence (P35968 786-1356 limits assumed): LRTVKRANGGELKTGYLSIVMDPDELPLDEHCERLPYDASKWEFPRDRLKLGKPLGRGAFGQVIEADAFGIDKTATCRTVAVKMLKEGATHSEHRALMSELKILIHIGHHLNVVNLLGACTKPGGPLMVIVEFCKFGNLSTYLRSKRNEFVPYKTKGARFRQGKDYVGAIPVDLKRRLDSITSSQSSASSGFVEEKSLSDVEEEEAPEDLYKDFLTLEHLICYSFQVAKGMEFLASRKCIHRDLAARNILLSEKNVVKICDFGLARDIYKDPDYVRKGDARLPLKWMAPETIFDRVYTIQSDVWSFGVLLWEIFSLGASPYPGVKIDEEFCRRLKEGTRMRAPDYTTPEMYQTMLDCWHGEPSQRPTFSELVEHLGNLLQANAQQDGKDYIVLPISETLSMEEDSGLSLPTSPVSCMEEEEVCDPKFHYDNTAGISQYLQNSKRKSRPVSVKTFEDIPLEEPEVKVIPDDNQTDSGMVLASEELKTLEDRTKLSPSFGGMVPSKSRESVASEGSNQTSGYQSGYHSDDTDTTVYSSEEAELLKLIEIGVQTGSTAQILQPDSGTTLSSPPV
Put plainly: Phosphorylation of the substrate PLCγ by the enzyme KDR in vitro (flashplate technique). The class given is biochemical. The settings on record: Table VII, degrees of activity by IC50 range; read-out: Activity. Here is the method: The inhibitory effect of the compounds is determined in a test of phosphorylation of a substrate by the enzyme KDR in vitro by the flasplate technique (96-well plate, NEN). The cytoplasmic domain of human KDR enzyme is cloned in the form of a GST fusion into the baculovirus expression vector pFastBac. The protein is expressed in the SF21 cells and purified to about 60% homogeneity.
The kinase activity of KDR is measured in 20 mM MOPS, 10 mM MgCl2, 10 mM MnCl2, 1 mM DTT, 2.5 mM EGTA, 10 mM β-glycerophosphate, pH 7.2 in the presence of 10 mM MgCl2, 100 μM Na3VO4, 1 mM NaF. 10 μl of the compound are added to 70 μl of kinase buffer containing 100 ng of KDR enzyme at 4° C. The reaction is initiated by adding 20 μl of solution containing 2 μg of substrate (fragment SH2-SH3 of PLCγ expressed in the form of a GST fusion protein), 2 μCi γ33P[ATP] and 2 μM cold ATP. After incubating for 1 h at 37° C., the reaction is quenched by adding 1 volume (100 μl) of 200 mM EDTA. The incubation buffer is removed and the wells are washed three times with 300 μl of PBS. The radioactivity is measured in each well using a Top Count NXT instrument (Packard).
Background noise is determined by measuring the radio-activity in wells in quadruplet containing radioactive ATP and the substrate alone.
An activity control is measured in wells in quadruplet containing all the reagents (γ33P-[ATP], KDR and the substrate PLCγ) and in the absence of compound.
The inhibition of the KDR activity with the compound of the invention is expressed as a percentage of inhibition of the control activity determined in the absence of compound.
The compound SU5614 (Calbiochem) (1 μM) is included in each plate as inhibition control.
The IC50 values for the compounds are calculated by plotting the dose-response curves. The IC50 corresponds to the concentration of compound that induces a 50% inhibition of the kinase activity.
`CC(=O)c1ccc(-c2ccc3nc(-c4[nH]nc5ccccc45)[nH]c3c2)s1` [Example 128, 1-{5-[2-(2H-Indazol-3-yl)-3H-benzoimidazol-5-yl]-thiophen-2-yl}-ethanone]: the IC50 lay in the range of 0.3 to 3 µM.
Still for that read-out and setting: for `Oc1ccc(-c2ccc3nc(-c4[nH]nc5ccccc45)[nH]c3c2)cc1` [Example 122, 4-[2-(2H-Indazol-3-yl)-3H-benzoimidazol-5-yl]-phenol] the value was 0.3 to 3 µM; for `CS(=O)(=O)c1ccc(-c2ccc3nc(-c4[nH]nc5ccccc45)[nH]c3c2)cc1` [Example 145, 3-[6-(4-Methanesulfonyl-phenyl)-1H-benzoimidazol-2-yl]-2H-indazole], > 3 µM; for `Fc1ccc(/C=C/c2ccc3nc(-c4[nH]nc5ccccc45)[nH]c3c2)cc1` [Example 138, 3-{6-[2-(4-Fluoro-phenyl)-vinyl]-1H-benzoimidazol-2-yl}-2H-indazole], > 3 µM.
The same measure, in the same setting: the result for `O=C(NCc1ccc(F)cc1)c1ccc2[nH]c(-c3n[nH]c4ccccc34)nc2c1` [Example 170, 2-(1H-Indazol-3-yl)-1H-benzoimidazole-5-carboxylic acid 4-fluoro-benzylamide] reads 0.3 to 3 µM; that for `O=C(Oc1cc(-c2nc3ccccc3[nH]2)[nH]n1)c1ccc(C(F)(F)F)cc1` [Example 227, 4-Trifluoromethyl-benzoic acid 5-(1H-benzoimidazol-2-yl)-1H-pyrazol-3-yl ester], > 3 µM.
`O=C(Oc1cc(-c2nc3ccccc3[nH]2)[nH]n1)C1CC1` [Example 221, Cyclopropanecarboxylic acid 5-(1H-benzoimidazol-2-yl)-1H-pyrazol-3-yl ester]: the IC50 was > 3 µM.
With `O=C(NCc1ccoc1)c1ccc2[nH]c(-c3n[nH]c4ccccc34)nc2c1` [Example 66, 2-(1H-Indazol-3-yl)-1H-benzoimidazole-5-carboxylic acid (furan-3-ylmethyl)-amide], the IC50 fell in the range of 0.3 to 3 µM.
Regarding `O=C(CCc1ccccc1)Oc1cc(-c2nc3ccccc3[nH]2)[nH]n1` [Example 224, 3-Phenyl-propionic acid 5-(1H-benzoimidazol-2-yl)-1H-pyrazol-3-yl ester], the IC50 was in the range of 0.3 to 3 µM.
The same measure, in the same setting: the result for `O=C(NCc1cccc(Br)c1)c1cccc2nc(-c3n[nH]c4ccccc34)[nH]c12` [Example 81, 2-(1H-Indazol-3-yl)-3H-benzoimidazole-4-carboxylic acid 3-bromo-benzylamide] reads > 3 µM.
Same read-out and setting: for `Clc1ccc(/C=C/c2ccc3nc(-c4[nH]nc5ccccc45)[nH]c3c2)cc1` [Example 139, 3-{6-[2-(4-Chloro-phenyl)-vinyl]-1H benzoimidazol-2-yl}-2H-indazole] the value was > 3 µM; for `Cc1ccsc1CNC(=O)c1ccc2[nH]c(-c3n[nH]c4ccccc34)nc2c1` [Example 46, 2-(1H-Indazol-3-yl)-1H-benzoimidazole-5-carboxylic acid (3-methyl-thiophen-2-ylmethyl)-amide], 0.3 to 3 µM; for `O=C(NCc1cccc(Br)c1)c1ccc2[nH]c(-c3n[nH]c4ccccc34)nc2c1` [Example 39, 2-(1H-Indazol-3-yl)-1H-benzoimidazole-5-carboxylic acid 3-bromo-benzylamide], 0.3 to 3 µM.
The same measure, in the same setting: for `c1ccc2c(-c3nc4ccc(-c5ccsc5)cc4[nH]3)[nH]nc2c1` [Example 110, 3-(6-Thiophen-3-yl-1H-benzoimidazol-2-yl)-2H-indazole] the value was 0.3 to 3 µM; for `CC(C)=CCC/C(C)=C/COc1cc(-c2nc3ccccc3[nH]2)[nH]n1` [Example 184, 2-[5-(3,7-Dimethyl-octa-2,6-dienyloxy)-2H-pyrazol-3-yl]-1H-benzoimidazole], 0.3 to 3 µM; for `Cc1ccccc1CNC(=O)c1ccc2[nH]c(-c3n[nH]c4ccccc34)nc2c1` [Example 45, 2-(1H-Indazol-3-yl)-1H-benzoimidazole-5-carboxylic acid 2-methyl-benzylamide], < 0.3 µM.
Consider `O=C(Oc1cc(-c2nc3ccccc3[nH]2)[nH]n1)c1ccncc1` [Example 214, Isonicotinic acid 5-(1H-benzoimidazol-2-yl)-1H-pyrazol-3-yl ester], for which the IC50 fell in the range of 0.3 to 3 µM.
With `CC(C)(C)OC(=O)N1CCC(CNC(=O)c2ccc3[nH]c(-c4n[nH]c5ccccc45)nc3c2)CC1` [Example 36, 4-({[2-(1H-Indazol-3-yl)-1H-benzoimidazole-5-carbonyl]-amino}-methyl)-piperidine-1-carboxylic acid tert-butyl ester], the IC50 lay in the range of 0.3 to 3 µM.
For the molecule `N#Cc1ccc(COc2cc(-c3nc4ccccc4[nH]3)[nH]n2)cc1` [Example 192, 4-[5-(1H-Benzoimidazol-2-yl)-1H-pyrazol-3-yloxymethyl]-benzonitrile], the IC50 was > 3 µM.
On the same count and under the same terms, the result for `c1ccc2sc(-c3ccc4nc(-c5[nH]nc6ccccc56)[nH]c4c3)cc2c1` [Example 126, 3-(6-Benzo[b]thiophen-2-yl-1H-benzoimidazol-2-yl)-2H-indazole] reads > 3 µM; that for `Clc1ccc(-c2ccc3nc(-c4[nH]nc5ccccc45)[nH]c3c2)cc1Cl` [Example 123, 3-[6-(3,4-Dichloro-phenyl)-1H-benzoimidazol-2-yl]-2H-indazole], > 3 µM.
The same measure, in the same setting: the result for `Clc1ccc(COc2cc(-c3nc4ccccc4[nH]3)[nH]n2)cc1Cl` [Example 188, 2-[5-(3,4-Dichloro-benzyloxy)-2H-pyrazol-3-yl]-1H-benzoimidazole] reads 0.3 to 3 µM; that for `COc1cccc(CNC(=O)c2ccc3[nH]c(-c4n[nH]c5ccccc45)nc3c2)c1` [Example 40, 2-(1H-Indazol-3-yl)-1H-benzoimidazole-5-carboxylic acid 3-methoxy-benzylamide], 0.3 to 3 µM.
On the same count and under the same terms, the result for `O=C(NCc1ccc(C(F)(F)F)nc1)c1ccc2[nH]c(-c3n[nH]c4ccccc34)nc2c1` [Example 172, 2-(1H-Indazol-3-yl)-1H-benzoimidazole-5-carboxylic acid (6-trifluoromethyl-pyridin-3-ylmethyl)-amide] reads 0.3 to 3 µM.
In the case of `O=C(NCC1COc2ccccc2O1)c1ccc2[nH]c(-c3n[nH]c4ccccc34)nc2c1` (centres unmarked) [Example 65, 2-(1H-Indazol-3-yl)-1H-benzoimidazole-5-carboxylic acid (2,3-dihydro-benzo[1,4]dioxin-2-ylmethyl)-amide], the IC50 lay in the range of 0.3 to 3 µM.
Turning to `c1ccc2c(-c3ccc4nc(-c5[nH]nc6ccccc56)[nH]c4c3)cccc2c1` [Example 99, 3-(6-Naphthalen-1-yl-1H-benzoimidazol-2-yl)-2H-indazole], the IC50 was > 3 µM.
With `Fc1c(F)c(F)c(COc2cc(-c3nc4ccccc4[nH]3)[nH]n2)c(F)c1F` [Example 189, 2-(5-Pentafluoro-phenylmethoxy-2H-pyrazol-3-yl)-1H-benzoimidazole], the IC50 is > 3 µM.
Still for that read-out and setting: for `COc1ccc(C(=O)Oc2cc(-c3nc4ccccc4[nH]3)[nH]n2)cc1` [Example 218, 4-Methoxy-benzoic acid 5-(1H-benzoimidazol-2-yl)-1H-pyrazol-3-yl ester] the value was > 3 µM; for `Cc1cccc(-c2ccc3nc(-c4[nH]nc5ccccc45)[nH]c3c2)c1` [Example 108, 3-(6-m-Tolyl-1H-benzoimidazol-2-yl)-2H-indazole], 0.3 to 3 µM.
For the molecule `CCOCCCNC(=O)c1ccc2[nH]c(-c3n[nH]c4ccccc34)nc2c1` [Example 29, 2-(1H-Indazol-3-yl)-1H-benzoimidazole-5-carboxylic acid (3-ethoxy-propyl)-amide], the IC50 was in the range of 0.3 to 3 µM.
The same measure, in the same setting: the result for `O=C(NCc1ccc(Br)cc1)c1ccc2[nH]c(-c3n[nH]c4ccccc34)nc2c1` [Example 30, 2-(1H-Indazol-3-yl)-1H-benzoimidazole-5-carboxylic acid 4-bromo-benzylamide] reads < 0.3 µM.
On the same count and under the same terms, for `O=C(NCc1ccc(Br)cc1)c1cccc2nc(-c3n[nH]c4ccccc34)[nH]c12` [Example 75, 2-(1H-Indazol-3-yl)-3H-benzoimidazole-4-carboxylic acid 4-bromo-benzylamide] the value was > 3 µM.

The assay is the same for the next values; noted with them: product tested at 10 μM; read-out: % of inhibition of the phosphorylation of PLCγ by KDR (product tested at a concentration of 10 μM).
In the case of `Cc1cc2nc(-c3cc(-c4cccs4)n[nH]3)[nH]c2cc1C` [Example 21, 5,6-Dimethyl-2-(5-thiophen-2-yl-2H-pyrazol-3-yl)-1H-benzimidazole], the inhibition at 10 µM came out at 35%.

Still in this assay, the particulars now being: read-out: IC50 (μM) on inhibition of the phosphory-lation of PLCγ by KDR.
On to `CC(C)NC(=O)c1ccc2[nH]c(-c3n[nH]c4ccccc34)nc2c1` [Example 4, 2-(1H-Indazol-3-yl)-1H-benzimidazole-5-carboxylic acid N-isopropylamide], for which the IC50 worked out at 0.45 µM.
For the molecule `Cc1cc2nc(-c3n[nH]c4ccccc34)[nH]c2cc1C` [Example 15, 5,6-Dimethyl-2-(1H-indazol-3-yl)-1H-benzimidazole], the IC50 turned out to be 0.8 µM.
